From patent publication US11338004B2, “Composition for preventing or treating cranial nerve disease comprising fomes fomentarius extract, fraction thereof, or compound isolated therefrom as active ingredient” (priority 2015, dated 2022)

Columns and labels:
[1] = target: xanthine oxidase (Homo sapiens, UniProt P47989); assay: Xanthine oxidase inhibitory activity; type: biochemical
Method: 0.2 ml of the substrate solution in which 2 mM xanthine was dissolved was added to 0.1 ml of a sample solution and 0.6 ml of 0.1 M potassium phosphate buffer at pH 7.5, and 0.1 ml of 0.2 unit/ml xanthine oxidase was added thereto, followed by reaction at 37° C. for 5 minutes. Then, 1 ml of 1N HCl was added to terminate the reaction, and then the absorbance of the uric acid produced in the reaction solution was measured at 292 nm. The inhibitory activity of xanthine oxidase was shown by the absorbance reduction rate of the addition group and the non-addition group of the sample solution.
Xanthine oxidase acts as a rate-limiting enzyme in the terminal oxidation of all purines and is an enzyme that acts as a source of oxidizing agents such as superoxide radicals and hydrogen peroxide. The superoxide anion inhibition by xanthine/xanthine oxidase enzymes is shown by superoxide anion scavenging activity and xanthine oxidase inhibition and has biologically important meaning through inhibition of gout and formation of free radicals. The superoxide radical scavenging effects of 10, 20, 40, 80, 160, 320, and 640 μg mL-1 of each fraction extract of the Fomes fomentarius were compared using butylated hydroxy anisole (BHA) as a positive control group.
The superoxide radical scavenging effects of 10, 20, 40, 80, 160, 320, and 640 μg mL-1 of the Acer tegmentosum maxim extract were compared using butylated hydroxy anisole (BHA) as a positive control group.
The superoxide radical scavenging effects of 10, 20, 40, 80, 160, 320, and 640 μg mL-1 of the berchemia berchemiaefolia extract were compared using butylated hydroxy anisole (BHA) as a positive control group.
The superoxide radical scavenging effects of 10, 20, 40, 80, 160, 320, and 640 μg mL-1 of the Lithospermum erythrorhizon extract were compared using butylated hydroxy anisole (BHA) as a positive control group.

[2] = DPPH radical scavenging activity
Method: The present experiment used the property that the hydrazyl of diphenylpicrylhydrazyl (DPPH) used in the present experiment has a property of easily accepting a hydrogen atom since the nitrogen atom is unstable, so as to react with the antioxidant material to accept the hydrogen atom to lose its own orthochromatism.
(§1) First, in order to measure DPPH radical scavenging activity of the Fomes fomentarius fraction, 1.9 ml of 0.2 mM DPPH solution (99.5% ethanol) was added to 0.1 ml of solutions (control: 99.5% ethanol) in which the concentrated dried material of each Fomes fomentarius substance was prepared at 7 concentrations of 10, 20, 40, 80, 160, 320 and 640 μg/ml, respectively. The mixture was shaken with a vortex mixer for 10 seconds and then incubated at 37° C. for 30 minutes. Then, the absorbance was measured at 517 nm using a spectrophotometer.
As a positive control drug, L-ascorbic acid was prepared at […] of 10, 20, 40, 80, 160, 320, and 640 μg/mL (99.5% ethanol).
The present inventors measured DPPH radicals scavenging activity in the same manner as in Example <2-2> above using nonadecanone (2-nonadecanone) and docosenol (cis-13-Docosenol) compounds found in the above and Fomes fomentarius CHCl3 fraction of the present disclosure.
as §1, with “Acer tegmentosum maxim extract,” for “Fomes fomentarius fraction,”, “Acer tegmentosum maxim material” for “Fomes fomentarius substance”
As a positive control, L-ascorbic acid was prepared at […] of 10, 20, 40, 80, 160, 320, and 640 μg/mL (99.5% ethanol).
as §1, with “berchemia berchemiaefolia extract,” for “Fomes fomentarius fraction,”, “berchemia berchemiaefolia material” for “Fomes fomentarius substance”
as §1, with “Lithospermum erythrorhizon extract,” for “Fomes fomentarius fraction,”, “Lithospermum erythrorhizon material” for “Fomes fomentarius substance”

[3] = target: AChE (Homo sapiens, UniProt P22303); assay: Acetylcholinesterase inhibitory activity; type: biochemical; settings: read-out: acetylcholinesterase inhibitory activity (%)
Method: AChE and acetylthocholine iodine (ATC) were dissolved in 100 mM phosphate buffer (pH 8.0) to prepare 0.25 U/mL and 75 mM, respectively. […] 2.8 mL of phosphate buffer (100 mM, pH 8.0), 30 μL of AChE (0.25 U/mL), and 100 μL of DTNB were added to 30 μL of the extract, and were mixed. Then, the mixture was preincubated at 37° C. for 10 minutes. Then, 30 μL of substrate ATC was added thereto and was reacted at 37° C. for 3 minutes, and then the absorbance was measured at 412 nm. As a control group, 30 μL of 100 mM phosphate buffer (pH 8.0) was added instead of the extract, and then was measured.

xanthine oxidase, sequence (P47989 whole entry, species assumed): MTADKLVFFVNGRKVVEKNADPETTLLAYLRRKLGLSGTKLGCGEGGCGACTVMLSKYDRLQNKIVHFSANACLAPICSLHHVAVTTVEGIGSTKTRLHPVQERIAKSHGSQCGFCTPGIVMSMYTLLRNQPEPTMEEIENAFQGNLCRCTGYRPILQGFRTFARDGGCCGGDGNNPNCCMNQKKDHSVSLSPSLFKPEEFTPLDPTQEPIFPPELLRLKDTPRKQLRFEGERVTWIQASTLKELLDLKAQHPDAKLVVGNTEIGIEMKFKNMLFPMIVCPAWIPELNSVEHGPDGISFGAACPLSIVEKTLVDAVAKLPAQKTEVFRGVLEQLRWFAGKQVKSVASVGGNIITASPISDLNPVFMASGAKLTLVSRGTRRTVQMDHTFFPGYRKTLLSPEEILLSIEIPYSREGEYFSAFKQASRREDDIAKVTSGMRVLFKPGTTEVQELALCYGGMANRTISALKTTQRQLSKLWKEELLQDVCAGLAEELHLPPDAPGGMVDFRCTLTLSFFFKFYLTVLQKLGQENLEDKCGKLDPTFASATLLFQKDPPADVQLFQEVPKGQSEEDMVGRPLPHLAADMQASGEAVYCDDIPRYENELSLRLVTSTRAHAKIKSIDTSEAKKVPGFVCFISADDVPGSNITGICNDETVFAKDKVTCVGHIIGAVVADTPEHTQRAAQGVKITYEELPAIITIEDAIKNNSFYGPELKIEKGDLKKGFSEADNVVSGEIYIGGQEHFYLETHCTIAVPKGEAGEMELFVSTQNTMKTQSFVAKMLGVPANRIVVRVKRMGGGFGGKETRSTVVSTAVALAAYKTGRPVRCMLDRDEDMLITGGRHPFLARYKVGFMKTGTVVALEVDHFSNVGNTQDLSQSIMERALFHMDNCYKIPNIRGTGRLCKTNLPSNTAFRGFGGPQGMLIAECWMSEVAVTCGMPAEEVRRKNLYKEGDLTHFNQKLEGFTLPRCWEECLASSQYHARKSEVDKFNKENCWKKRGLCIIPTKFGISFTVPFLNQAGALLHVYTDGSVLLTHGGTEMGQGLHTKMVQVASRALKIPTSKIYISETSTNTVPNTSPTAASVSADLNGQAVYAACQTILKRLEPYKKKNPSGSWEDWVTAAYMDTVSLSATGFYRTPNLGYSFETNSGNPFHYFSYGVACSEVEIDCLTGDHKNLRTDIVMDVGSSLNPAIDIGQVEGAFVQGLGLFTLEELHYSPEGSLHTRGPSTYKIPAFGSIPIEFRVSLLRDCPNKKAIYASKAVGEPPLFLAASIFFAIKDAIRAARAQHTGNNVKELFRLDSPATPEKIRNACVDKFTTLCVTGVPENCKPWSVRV
AChE, sequence (P22303 32-614): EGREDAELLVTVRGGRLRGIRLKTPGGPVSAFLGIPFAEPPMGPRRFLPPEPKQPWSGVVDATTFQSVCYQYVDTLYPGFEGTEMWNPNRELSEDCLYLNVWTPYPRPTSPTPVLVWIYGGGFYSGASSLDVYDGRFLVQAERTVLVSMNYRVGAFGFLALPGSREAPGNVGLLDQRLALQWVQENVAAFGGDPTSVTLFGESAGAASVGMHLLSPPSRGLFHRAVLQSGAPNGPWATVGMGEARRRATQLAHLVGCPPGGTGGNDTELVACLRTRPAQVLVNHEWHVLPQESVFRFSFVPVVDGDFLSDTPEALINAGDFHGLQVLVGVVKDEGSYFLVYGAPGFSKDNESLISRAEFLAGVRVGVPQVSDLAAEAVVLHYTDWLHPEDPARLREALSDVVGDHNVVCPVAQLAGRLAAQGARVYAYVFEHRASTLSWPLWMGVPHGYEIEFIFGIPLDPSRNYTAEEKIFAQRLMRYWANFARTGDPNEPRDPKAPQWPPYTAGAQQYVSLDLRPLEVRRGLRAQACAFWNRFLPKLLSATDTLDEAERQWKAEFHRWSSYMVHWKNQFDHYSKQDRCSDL

Compound: COc1ccc(O)c(C(C)(C)C)c1 [BHA, butylated hydroxyanisole]
- xanthine oxidase inhibitory activity ([1]; 10 μg/mL): 24.1±0.1
- xanthine oxidase inhibitory activity ([1]; 20 μg/mL): 35.8±0.3
- xanthine oxidase inhibitory activity ([1]; 40 μg/mL): 58.1±0.4
- xanthine oxidase inhibitory activity ([1]; 80 μg/mL): 68.1±0.5
- xanthine oxidase inhibitory activity ([1]; 160 μg/mL): 76.1±0.8
- xanthine oxidase inhibitory activity ([1]; 320 μg/mL): 83.5±1.2
- xanthine oxidase inhibitory activity ([1]; 640 μg/mL): 85.6±1.3
- xanthine oxidase inhibition of the positive control group ([1]; concentration not stated (Example 2-18)): 94.1%

Compound: O=C1O[C@H]([C@@H](O)CO)C(O)=C1O [ascorbic acid, L-ascorbic acid, reference compound]
- DPPH radical scavenging activity (% antioxidant activity) ([2]; 10 μg/mL): 70.5±4.5% and about 70.5%
- DPPH radical scavenging activity (% antioxidant activity) ([2]; 20 μg/mL): 71.8±12.5% and about 71.8%
- DPPH radical scavenging activity (% antioxidant activity) ([2]; 40 μg/mL): 74.1±8.2% and about 74.1%
- DPPH radical scavenging activity (% antioxidant activity) ([2]; 80 μg/mL): 77.8±7.6% and about 77.8%
- DPPH radical scavenging activity (% antioxidant activity) ([2]; 160 μg/mL): 80.6±4.5% and about 80.6%
- DPPH radical scavenging activity (% antioxidant activity) ([2]; 320 μg/mL): 83.2±9.6% and about 83.2%
- DPPH radical scavenging activity (% antioxidant activity) ([2]; 640 μg/mL): 84.5±7.7% and about 84.5%
- inhibition at 10 µg/mL [3]: 35.8 ± 3.5%
- inhibition at 20 µg/mL [3]: 45.1 ± 4.5%
- inhibition at 40 µg/mL [3]: 51.8 ± 6.5%
- inhibition at 80 µg/mL [3]: 61.1 ± 4.1%
- inhibition at 160 µg/mL [3]: 61.9 ± 3.8%
- inhibition at 320 µg/mL [3]: 76.1 ± 4.6%
- inhibition at 640 µg/mL [3]: 87.9 ± 5.6%
- inhibition at 10 µg/mL ([1]; 10 μg/mL): 24.1 ± 1.8%
- inhibition at 20 µg/mL ([1]; 20 μg/mL): 35.1 ± 2.5%
- inhibition at 40 µg/mL ([1]; 40 μg/mL): 58.1 ± 0.9%
- inhibition at 80 µg/mL ([1]; 80 μg/mL): 68.1 ± 1.1%
- inhibition at 160 µg/mL ([1]; 160 μg/mL): 76.1 ± 2.5%
- inhibition at 320 µg/mL ([1]; 320 μg/mL): 83.5 ± 3.5%
- inhibition at 640 µg/mL ([1]; 640 μg/mL): 85.6 ± 2.8%
